Results on three molecules are retold here after patent US10435372B2, “Use of phenylpyrazolin-3-carboxylates for improving plant yield” (BAYER INTELLECTUAL PROPERTY GMBH, priority 2011, dated 2019).

Each structure is given as a SMILES string.

Holding throughout (type): in vivo
Assay [1] concerns spring oilseed rape (canola). Nature of the assay: Field trial: grain yield of spring oilseed rape (canola), postemergence treatment with MPR + tebuconazole. Conditions: TBC 150, MPR + TBC 100 + 150 g ai/ha. The source says:
(§1) The applications have been done with seed treatment, pre- or post-emergence treatments straight (alone, 1 application) or sequential treatments e.g. seed treatment followed by pre-emergence and/or post-emergence spray applications. The pre- or post-emergence applications were made with spray applications using 100-300 l/water per hectare. The growth stage of the crops species at the time of application are reported in the result tables. The dose rates of the herbicidal active ingredients applied alone respective in sequential application are also described in the result tables. The assessments have been done via visual ratings (0-100% scale) or counting. The trials have been harvested after crops reached the full maturity. After the harvest the total weight of kernels/seeds/beets per plot was measured. The results are reported as means over 2-4 replications. The time between applications and assessments or countings/harvest are described in the result tables as well.

In assay [2] the test system is spring wheat. Nature of the assay: Field trial: grain yield of spring wheat, postemergence treatment with MPR + epoxiconazole. The following applies: EPC 125, MPR + EPC 100 + 125 g ai/ha.
Excerpt: as §1

The subject of another assay is durum wheat. Nature of the assay: Field trial: grain yield of durum wheat, seed treatment with mefenpyr-diethyl. The text has this:
(§2) The trials have been carried out under natural field conditions (plot trials, 10 square meter plots, 2-4 replications).
(§3) The applications have been done with seed treatment, pre- or post-emergence treatments straight (alone, 1 application) or sequential treatments e.g. seed treatment followed by pre-emergence and/or post-emergence spray applications. The pre- or post-emergence applications were made with spray applications using 100-300 l/water per hectare. The growth stage of the crops species at the time of application are reported in the result tables. The dose rates of the herbicidal active ingredients applied alone respective in sequential application are also described in the result tables.
(§4) The assessments have been done via visual ratings (0-100% scale) or counting. The trials have been harvested after crops reached the full maturity. After the harvest the total weight of kernels/seeds/beets per plot was measured. The results are reported as means over 2-4 replications. The time between applications and assessments or countings/harvest are described in the result tables as well.
(§5) The active ingredients have been applied to the untreated, dry seeds together with a carrier. After a short period of time to let the seeds dry, they were ready to be sown in the pot or field using standard equipments.

The next assay concerns winter barley. Nature of the assay: Field trial: grain yield of winter barley, sequential application of MPR. The following applies: 0.5 g ai/kg seed fb 4 × 50 g ai/ha post.
Excerpt: as §2, §3, §4, §5

Assay [3] deals with winter oilseed rape (canola). Nature of the assay: Field trial: grain yield of winter oilseed rape (canola), sequential application of mefenpyr-diethyl. The following applies: 3 g ai/kg seed fb 3 × 50 g ai/ha post.
Excerpt: as §2, §3, §4, §5

For assay [4], the system named is sugarbeets. Nature of the assay: Field trial: emergence of sugarbeets, seed treatment with MPR. The following applies: seed treatment 0.015 mg ai/seed, 28 days after planting.
Excerpt: as §2, §3, §4, §5

The subject of assay [5] is spring wheat. Nature of the assay: Field trial: grain yield of spring wheat, postemergence treatment with mefenpyr-diethyl.
Excerpt: as §2, §3, §4

In assay [6] the test system is winter wheat. Nature of the assay: Field trial: grain yield of winter wheat, postemergence treatment with mefenpyr-diethyl.
Excerpt: as §2, §3, §4

A further assay deals with sugarbeet. Nature of the assay: Field trial: beet yield of sugarbeet, sequential application of mefenpyr-diethyl. The following applies: 0.015 mg ai/seed fb 3 × 50 g ai/ha post.
Excerpt: as §2, §3, §4, §5

Assay [7] relates to sugarbeets. Nature of the assay: Field trial: sugar yield of sugarbeets, sequential application of mefenpyr-diethyl. The following applies: 0.015 mg ai/seed fb 3 × 50 g ai/ha post.
Excerpt: as §2, §3, §4, §5

The subject of assay [8] is winter wheat. Nature of the assay: Field trial: emergence (number of plants) of winter wheat, pre-emergence application of mefenpyr-diethyl. Conditions: 11 days after application.
Excerpt: as §2, §3, §4

[9] abbreviates: grain yield relative to UTC = 100%.

With `CC(C)(C)C(O)(CCc1ccc(Cl)cc1)Cn1cncn1` (stereo not drawn) [TBC, tebuconazole], the Relative % in assay [1] (setting [9]) amounted to 102%. The “Difference (%) vs. UTC” value in assay [1] (grain yield) is reported as “+2%”. In addition, in assay [1] (spring oilseed rape, post-emergence spring, beginning of flowering, harvest 92 days after application, UTC 3.91), the “Yield (grain yield at harvest)” value was 3.98 t/ha.
Take `Fc1ccc([C@]2(Cn3cncn3)O[C@H]2c2ccccc2Cl)cc1` (racemic) [EPC, epoxiconazole]: the Relative % in the assay on spring wheat [2] (setting [9]) was found to be 109.7%. In addition, the “Difference (%) vs. UTC” value in the assay with spring wheat [2] (grain yield) is “+9.7%”. Further, in the assay with spring wheat [2] (spring wheat, post-emergence spring, flag leaf sheath opening, harvest 55 days after application, UTC 1.84), the “Yield (grain yield at harvest)” value amounted to 2.02 t/ha.
As for `CCOC(=O)C1=NN(c2ccc(Cl)cc2Cl)C(C)(C(=O)OCC)C1` (stereo not drawn) [MPR, ethyl 1-(2,4-dichlorophenyl)-5-(ethoxycarbonyl)-5-methyl-2-pyrazoline-3-carboxylate], the “Yield (grain yield at harvest)” value in the assay on durum wheat (durum wheat, seed treatment 0.5 g ai/kg seed prior planting, harvest 158 days after application, UTC 4.45) amounted to 4.97 t/ha; with winter barley (winter barley, harvest 74 days after the last application, UTC 10.01) it was 10.45 t/ha; in assay [3] (winter oilseed rape, harvest 102 days after the last application, UTC 3.60) it was 3.85 t/ha; with spring wheat [5] (spring wheat, 100 g ai/ha post-emergence spring, flag leaf/beginning of ear heading, harvest 72 days after application, UTC 6.06), 7.16 t/ha; with winter wheat [6] (winter wheat, 100 g ai/ha post-emergence spring, beginning of stem elongation, harvest 84 days after application, UTC 9.52), 10.12 t/ha. The Relative % with durum wheat (grain yield relative to UTC = 100%, seed treatment 0.5 g ai/kg seed) turned out to be 111.7%; in the assay on spring wheat [5] (grain yield relative to UTC = 100%, 100 g ai/ha post-emergence, 72 days after application), 119.2%; in the assay on winter wheat [6] (grain yield relative to UTC = 100%, 100 g ai/ha post-emergence, 84 days after application), 106.3%; in the assay with winter wheat [8] (number of plants relative to UTC = 100%, pre-emergence, dose 100), 107.4%. For the same molecule, the “Difference (%) vs. UTC” value in the assay on durum wheat (grain yield, seed treatment 0.5 g ai/kg seed) was “+11.7%”; in the assay with winter barley (grain yield), “+4%”; in assay [3] (grain yield), “+7%”; with sugarbeets [4] (emerged plants), “+9.2%”; in the assay with spring wheat [5] (grain yield, 100 g ai/ha post-emergence, 72 days after application), “+19.2%”; in the assay on winter wheat [6] (grain yield, 100 g ai/ha post-emergence, 84 days after application), “+6.3%”. Further, the “Difference (%) vs. UTC” value in the assay with sugarbeet (beet yield) is on record as “+8.1%”; in the assay on sugarbeets [7] (sugar yield), “+6.1%”; in the assay with winter wheat [8] (number of plants, pre-emergence, dose 100) it was “+7.4%”. In addition, the Relative with winter barley (setting [9]) amounted to 104%; in [3] (setting [9]) it was 107%; in the assay with sugarbeets [4] (emerged plants relative to UTC = 100%) it was 109.2%; with sugarbeet (beet yield relative to UTC = 100%) it was 108.1%; in the assay on sugarbeets [7] (sugar yield relative to UTC = 100%), 106.1%. In addition, in the assay with sugarbeets [4] (sugarbeets, UTC 65), the “plants/18 row meters (emergence, counting)” value worked out at 71 plants/18 row meters. Moreover, the “Yield (yield of beets by weight at harvest)” value in the assay with sugarbeet (sugarbeet, harvest 162 days after last application, UTC 58.7) came out at 63.5 t/ha. The “Sugar Yield (by weight at harvest)” value in the assay on sugarbeets [7] (sugarbeets, harvest 162 days after the last application, UTC 5.70) came to 6.05 t/ha. Further, the “Yield [plants/row meter] (number of plants, increased emergence)” value in the assay with winter wheat [8] (winter wheat, pre-emergence treatment, dose 100 g ai/ha, UTC 34.2) was found to be 36.8 plants/row meter.
